Like-named read-outs stand apart in the source and are kept apart here.
How the values were obtained:
CD8+ T cells = experiment: In vitro T-cell priming assay (aAPCs loaded with peptide/MHC and anti-CD28, pMHC multimer readout); assay type: cell-based, human; conditions: for Wells: positive wells
From the text: In order to obtain information regarding the immunogenicity of the TUMAPs of the present invention, we performed investigations using an in vitro T-cell priming assay based on repeated stimulations of CD8+ T cells with artificial antigen presenting cells (aAPCs) loaded with peptide/MHC complexes and anti-CD28 antibody.
In order to perform in vitro stimulations by artificial antigen presenting cells loaded with peptide-MHC complex (pMHC) and anti-CD28 antibody, we first isolated CD8+ T cells from fresh HLA-A*02 leukapheresis products via positive selection using CD8 microbeads (Miltenyi Biotec, Bergisch-Gladbach, Germany) of healthy donors obtained from the Transfusion Medicine Tuebingen, Germany, after informed consent.
Isolated CD8+ lymphocytes or PBMCs were incubated until use in T-cell medium (TCM) consisting of RPMI-Glutamax (Invitrogen, Karlsruhe, Germany) supplemented with 10% heat inactivated human AB serum (PAN-Biotech, Aidenbach, Germany), 100 U/ml Penicillin/100 μg/ml Streptomycin (Cambrex, Cologne, Germany), 1 mM sodium pyruvate (CC Pro, Oberdorla, Germany), 20 μg/ml Gentamycin (Cambrex). 2.5 ng/ml IL-7 (PromoCell, Heidelberg, Germany) and 10 U/ml IL-2 (Novartis Pharma, Nurnberg, Germany) were also added to the TCM at this step.
Generation of pMHC/anti-CD28 coated beads, T-cell stimulations and readout was performed in a highly defined in vitro system using four different pMHC molecules per stimulation condition and 8 different pMHC molecules per readout condition.
All pMHC complexes used for aAPC loading and cytometric readout were derived from UV-induced MHC ligand exchange (Rodenko et al., 2006) with minor modifications. In order to determine the amount of pMHC monomer obtained by exchange we performed streptavidin-based sandwich ELISAs according to (Rodenko et al., 2006).
The purified co-stimulatory mouse IgG2a anti human CD28 Ab 9.3 (Jung et al., 1987) was chemically biotinylated using Sulfo-N-hydroxysuccinimidobiotin as recommended by the manufacturer (Perbio, Bonn, Germany). Beads used were 5.6 μm diameter streptavidin coated polystyrene particles (Bangs Laboratories, Ill., USA).
pMHC used for positive and negative control stimulations were A*0201/MLA-001 (peptide […] from modified Melan-A/MART-1) and A*0201/DDX5-001 ([…] from DDX5), respectively.
800.000 beads/200 μl were coated in 96-well plates in the presence of 4×12.5 ng different biotin-pMHC, washed and 600 ng biotin anti-CD28 were added subsequently in a volume of 200 μl. Stimulations were initiated in 96-well plates by co-incubating 1×10^6 CD8+ T cells with 2×10^5 washed coated beads in 200 μl TCM supplemented with 5 ng/ml IL-12 (PromoCell) for 3-4 days at 37° C. Half of the medium was then exchanged by fresh TCM supplemented with 80 U/ml IL-2 and incubating was continued for 3-4 days at 37° C. This stimulation cycle was performed for a total of three times. For the pMHC multimer readout using 8 different pMHC molecules per condition, a two-dimensional combinatorial coding approach was used as previously described (Andersen et al., 2012) with minor modifications encompassing coupling to 5 different fluorochromes. Finally, multimeric analyses were performed by staining the cells with Live/dead near IR dye (Invitrogen, Karlsruhe, Germany), CD8-FITC antibody clone SK1 (BD, Heidelberg, Germany) and fluorescent pMHC multimers. For analysis, a BD LSRII SORP cytometer equipped with appropriate lasers and filters was used. Peptide specific cells were calculated as percentage of total CD8+ cells. Evaluation of multimeric analysis was done using the FlowJo software (Tree Star, Oreg., USA). In vitro priming of specific multimer+CD8+ lymphocytes was detected by comparing to negative control stimulations.

HLA-A*0201 = HLA-A*0201 (Homo sapiens, UniProt P04439, D140Y/D185E/D98H/E176V/E277Q/G131W/G231S/I119V/I121R/I166T/I218V/L300P/L318F/N151K/N90K/P208A/P217A/Q86G/Q94H/R138H/R169H/T345S); experiment: UV-ligand exchange with ELISA of stabilized MHC complexes; assay type: binding; conditions: class symbol
From the text: Candidate peptides for the vaccines according to the present invention were further tested for immunogenicity by in vitro priming assays. The individual peptide-MHC complexes required for these assays were produced by UV-ligand exchange, where a UV-sensitive peptide is cleaved upon UV-irradiation, and exchanged with the peptide of interest as analyzed. Only peptide candidates that can effectively bind and stabilize the peptide-receptive MHC molecules prevent dissociation of the MHC complexes. To determine the yield of the exchange reaction, an ELISA was performed based on the detection of the light chain (β2m) of stabilized MHC complexes. The assay was performed as generally described in Rodenko et al. (Rodenko B, Toebes M, Hadrup S R, van Esch W J, Molenaar A M, Schumacher T N, Ovaa H. Generation of peptide-MHC class I complexes through UV-mediated ligand exchange. Nat Protoc. 2006; 1(3):1120-32.).
96 well MAXISorp plates (NUNC) were coated over night with 2 ug/ml streptavidin in PBS at room temperature, washed 4× and blocked for 30 min at 37° C. in 2% BSA containing blocking buffer. Refolded HLA-A*0201/MLA-001 monomers served as standards, covering the range of 8-500 ng/ml. Peptide-MHC monomers of the UV-exchange reaction were diluted 100 fold in blocking buffer. Samples were incubated for 1 h at 37° C., washed four times, incubated with 2 ug/ml HRP conjugated anti-β2m for 1 h at 37° C., washed again and detected with TMB solution that is stopped with […]. Absorption was measured at 450 nm.

[1] = in vitro immunogenicity, trifluoro-acetate salts of the peptides
[2] = in vitro immunogenicity, responding healthy donors, trifluoro-acetate salts of the peptides

| Exchange yield (HLA-A*0201) | Substance | Wells (CD8+ T cells; [1]) | Donors (CD8+ T cells; [2]) | Donors (CD8+ T cells) [%] |
| --- | --- | --- | --- | --- |
| – | 43 (ALFPHLLQPV; listed as Homo sapiens) [compound 43] | + (<20% = +) | +++ (50%-70%, +++) | – |
| – | 44 (NLLAEIHGV; listed as Homo sapiens) [compound 44] | + (<20% = +) | ++ (20%-49% = ++) | – |
| – | 45 (AIMGFIGFFV; listed as Homo sapiens) [compound 45] | + (<20% = +) | + (<20% = +) | – |
| – | 46 (TLTNIIHNL; listed as Homo sapiens) [compound 46] | + (<20% = +) | +++ (50%-70%, +++) | – |
| – | 47 (GVLENIFGV; listed as Homo sapiens) [compound 47] | + (<20% = +) | ++ (20%-49% = ++) | – |
| – | 48 (GLIEIISNA; listed as Homo sapiens) [compound 48] | + (<20% = +) | + (<20% = +) | – |
| – | 52 (ALLERGYSL; listed as Homo sapiens) [compound 52] | + (<20% = +) | + (<20% = +) | – |
| – | 53 (YLPHAPPFA; listed as Homo sapiens) [compound 53] | ++ (20%-49% = ++) | ++ (20%-49% = ++) | – |
| – | 54 (KLVEFDFLGA; listed as Homo sapiens) [compound 54] | + (<20% = +) | ++ (20%-49% = ++) | – |
| – | 55 (SLADFMQEV; listed as Homo sapiens) [compound 55] | + (<20% = +) | ++ (20%-49% = ++) | – |
| – | 56 (SLYKGLLSV; listed as Homo sapiens) [compound 56] | ++ (20%-49% = ++) | ++++ (>70 = ++++) | 100 |
| – | 57 (GLAEDIDKGEV; listed as Homo sapiens) [compound 57] | + (<20% = +) | ++ (20%-49% = ++) | – |
| – | 59 (ILVSWLPRL; listed as Homo sapiens) [compound 59] | + (<20% = +) | +++ (50%-70%, +++) | – |
| – | 60 (VVDKTLLLV; listed as Homo sapiens) [compound 60] | +++ (50%-70%, +++) | ++++ (>70 = ++++) | 100 |
| – | 61 (TLISRLPAV; listed as Homo sapiens) [compound 61] | + (<20% = +) | +++ (50%-70%, +++) | – |
| – | 62 (ILFPDIIARA; listed as Homo sapiens) [compound 62] | ++ (20%-49% = ++) | ++++ (>70 = ++++) | – |
| – | 63 (SLAGDVALQQL; listed as Homo sapiens) [compound 63] | + (<20% = +) | ++ (20%-49% = ++) | – |
| – | 64 (AMLAVLHTV; listed as Homo sapiens) [compound 64] | + (<20% = +) | +++ (50%-70%, +++) | – |
| – | 65 (KVLEILHRV; listed as Homo sapiens) [compound 65] | ++ (20%-49% = ++) | +++ (50%-70%, +++) | – |
| – | 66 (KIQEILTQV; listed as Homo sapiens) [compound 66] | + (<20% = +) | +++ (50%-70%, +++) | – |
| – | 67 (ILQDRLNQV; listed as Homo sapiens) [compound 67] | + (<20% = +) | ++ (20%-49% = ++) | – |

| Exchange yield (HLA-A*0201) | Substance | Wells (CD8+ T cells; [1]) | Donors (CD8+ T cells; [2]) | Donors (CD8+ T cells) [%] |
| --- | --- | --- | --- | --- |
| – | 68 (YVYQNNIYL; listed as Homo sapiens) [compound 68] | + (<20% = +) | + (<20% = +) | – |
| – | 69 (AMSSKFFLV; listed as Homo sapiens) [compound 69] | ++ (20%-49% = ++) | +++ (50%-70%, +++) | – |
| – | 70 (KILEDVVGV; listed as Homo sapiens) [compound 70] | + (<20% = +) | +++ (50%-70%, +++) | – |
| – | 71 (KLLEYIEEI; listed as Homo sapiens) [compound 71] | + (<20% = +) | +++ (50%-70%, +++) | – |
| – | 72 (KLLTEVHAA; listed as Homo sapiens) [compound 72] | + (<20% = +) | +++ (50%-70%, +++) | – |
| – | 73 (FLLDGSANV; listed as Homo sapiens) [compound 73] | + (<20% = +) | ++ (20%-49% = ++) | – |
| – | 74 (SLLAQNTSWLL; listed as Homo sapiens) [compound 74] | + (<20% = +) | +++ (50%-70%, +++) | – |
| – | 75 (ALYDSVILL; listed as Homo sapiens) [compound 75] | + (<20% = +) | ++ (20%-49% = ++) | – |
| – | 78 (SLYDNQITTV; listed as Homo sapiens) [compound 78] | ++ (20%-49% = ++) | ++ (20%-49% = ++) | – |
| – | 79 (SLAPAGVIRV; listed as Homo sapiens) [compound 79] | + (<20% = +) | ++++ (>70 = ++++) | – |
| – | 80 (SLFGNSGILENV; listed as Homo sapiens) [compound 80] | + (<20% = +) | ++ (20%-49% = ++) | – |
| – | 81 (ALYGRLEVV; listed as Homo sapiens) [compound 81] | + (<20% = +) | ++ (20%-49% = ++) | – |
| – | 85 (KIVDFSYSV; listed as Homo sapiens) [compound 85] | ++ (20%-49% = ++) | ++++ (>70 = ++++) | – |
| – | 86 (AMATESILHFA; listed as Homo sapiens) [compound 86] | + (<20% = +) | ++ (20%-49% = ++) | – |
| – | 87 (RVLPPSALQSV; listed as Homo sapiens) [compound 87] | + (<20% = +) | +++ (50%-70%, +++) | – |
| – | 88 (SLLESNKDLLL; listed as Homo sapiens) [compound 88] | + (<20% = +) | ++ (20%-49% = ++) | – |
| – | 92 (HLLEDIAHV; listed as Homo sapiens) [compound 92] | + (<20% = +) | ++ (20%-49% = ++) | – |
| ++ (20%-49% = ++) | AIDGNNHEV (listed as Homo sapiens) [SEQ ID NO 31] | – | – | – |
| ++ (20%-49% = ++) | AILDTLYEV (listed as Homo sapiens) [SEQ ID NO 21] | – | – | – |
| + (<20% = +) | AIMGFIGFFV (listed as Homo sapiens) [SEQ ID NO 45] | – | – | – |
| +++ (50%-70%, +++) | ALANQKLYSV (listed as Homo sapiens) [SEQ ID NO 83] | – | – | – |
